Results from patent publication US8012961B2, “Tricyclic antibiotics” (Actelion Pharmaceutical Ltd., priority 2008, dated 2011).
Values after ≈ are worked out from the molar mass of the structure shown.

System: M. catarrhalis A894
Experiment: MIC determination by microdilution in cation-adjusted Mueller-Hinton Broth (NCCLS)
Assay type: cell-based
Conditions: pH of the test medium 7.2-7.3; for MIC M. catarrhalis A894: microdilution method; for MIC: Moraxella catarrhalis, A894, microdilution method
Protocol: These assays have been performed following the description given in “Methods for dilution Antimicrobial Susceptibility Tests for Bacteria that Grow Aerobically, 4th ed.; Approved standard: NCCLS Document M7-A4; National Committee for Clinical Laboratory Standards: Villanova, Pa., USA, 1997”. Minimal inhibitory concentrations (MICs; mg/l) were determined in cation-adjusted Mueller-Hinton Broth by a microdilution method following NCCLS guidelines (National Committee for Clinical Laboratory Standards. Methods for Dilution Antimicrobial Susceptibility). The pH of the test medium was 7.2-7.3. All Example compounds were tested against several Gram positive and Gram negative bacteria such as S. aureus, E. faecalis, S. pneumoniae, M. catarrhalis or E.coli.

Row | SMILES | MIC M. catarrhalis A894 | MIC [mg/L]
1 | COc1ccc2ncc3c(c2n1)C(CN1[C@@H]2CC[C@H]1C[C@H](NCc1ccc4c(n1)NC(=O)CS4)C2)CO3 (mixture of isomers) [Example 23, 6-{[(3-exo)-8-((1RS)-8-methoxy-1,2-dihydro-3-oxa-5,9-diaza-cyclopenta[a]naphthalen-1-ylmethyl)-8-aza-bicyclo[3.2.1]oct-3-ylamino]-methyl}-4H-pyrido[3,2-b][1,4]thiazin-3-one] | ≦0.031 mg/l | –
2 | COc1ccc2ncc3c(c2n1)C(CN1CCO[C@@H](CNCc2ccc4c(n2)NC(=O)CO4)C1)CO3 (mixture of isomers) [Example 24, 6-({[(2S)-4-((1RS)-8-methoxy-1,2-dihydro-3-oxa-5,9-diaz-cyclopenta[a]naphthalen-1-ylmethyl)-morpholin-2-ylmethyl]-amino}-methyl) -4H-pyrido[3,2-b][1,4]oxazin-3-one] | ≦0.031 mg/l | –
3 | COc1ccc2ncc3c(c2n1)C(CN1CCC(NCc2ccc4c(n2)NC(=O)CS4)CC1)CO3 (racemic) [Example 7, rac-6-{[1-(8-methoxy-1,2-dihydro-3-oxa-5,9-diaza-cyclopenta[a]naphthalen-1-ylmethyl)-piperidin-4-ylamino]-methyl}-4H-pyrido[3,2-b][1,4]thiazin-3-one] | – | ≤ 0.031
4 | COc1ccc2ncc3c(c2n1)C(CN1CC2C(C1)C2NCc1ccc2c(n1)NC(=O)CS2)CO3 (racemic) [Example 34, 6-{[(1α,5α,6α)-3-((1RS)-8-methoxy-1,2-dihydro-3-oxa-5,9-diaza-cyclopenta[a]naphthalen-1-ylmethyl)-3-aza-bicyclo[3.1.0]hex-6-ylamino]-methyl}-4H-pyrido[3,2-b][1,4]thiazin-3-one] | ≦0.031 mg/l | –
5 | COc1ccc2ncc3c(c2n1)C(CN1CC[C@@H](NCc2ccc4c(n2)NC(=O)CO4)[C@@H](F)C1)CO3 (relative stereo) [Example 18, 6-{[(3S*,4R*)-3-fluoro-1-((1RS)-8-methoxy-1,2-dihydro-3-oxa-5,9-diaza-cyclopenta[a]naphthalen-1-ylmethyl)-piperidin-4-ylamino]-methyl}-4H-pyrido[3,2-b][1,4]oxazin-3-one] | – | ≤ 0.031
6 | COc1ccc2ccc3c(c2n1)C(CN1CCC(NCc2ccc4c(c2)NC(=O)CO4)CC1)CO3 (racemic) [Example 15, rac-6-{[1-(2-methoxy-8,9-dihydro-furo[2,3-h]quinolin-9-ylmethyl) -piperidin-4-ylamino]-methyl}-4H-benzo[1,4]oxazin-3-one] | – | ≤ 0.031
7 | COc1ccc2ccc3c(c2n1)C(CN1CCC(NCc2cc4c(cn2)OCCO4)CC1)CO3 (racemic) [Example 2, rac-(2,3-dihydro-[1,4]dioxino[2,3-c]pyridin-7-ylmethyl)-[1-(2-methoxy-8,9-dihydro-furo[2,3-h]quinolin-9-ylmethyl)-piperidin-4-yl]-amine] | – | ≤ 0.031
8 | COc1ccc2ncc3c(c2n1)C(CN1CCO[C@@H](CNCc2cc4c(cn2)OCCO4)C1)CO3 (mixture of isomers) [Example 26, (2,3-dihydro-[1,4]dioxino[2,3-c]pyridin-7-ylmethyl) -[(2S)-4-((1RS)-8-methoxy-1,2-dihydro-3-oxa-5,9-diaza-cyclopenta[a]naphthalen-1-ylmethyl)-morpholin-2-ylmethyl]-amine] | – | ≤ 0.031
9 | COc1ccc2ncc3c(c2n1)C(CN1CCC(NCc2ccc4c(c2)OCCO4)CC1)CO3 (racemic) [Example 10, rac-(2,3-dihydro-benzo[1,4]dioxin-6-ylmethyl)-[1-(8-methoxy-1,2-dihydro-3-oxa-5,9-diaza-cyclopenta[a]naphthalen-1-ylmethyl)-piperidin-4-yl]-amine] | – | ≤ 0.031
10 | COc1ccc2ccc3c(c2n1)C(CN1CCC(NC/C=C/c2cc(F)ccc2F)CC1)CO3 (racemic) [Example 1, rac-[(E)-3-(2,5-difluoro-phenyl)-allyl]-[1-(2-methoxy-8,9-dihydro-furo[2,3-h]quinolin-9-ylmethyl)-piperidin-4-yl]-amine] | – | ≤ 0.031
11 | COc1ccc2ncc3c(c2n1)C(CN1CCC(NCc2cc4c(cn2)OCCO4)CC1)CO3 (racemic) [Example 9, rac-(2,3-dihydro-[1,4]dioxino[2,3-c]pyridin-7-ylmethyl)-[1-(8-methoxy-1,2-dihydro-3-oxa-5,9-diaza-cyclopenta[a]naphthalen-1-ylmethyl)-piperidin-4-yl]-amine] | – | ≤ 0.031
12 | COc1ccc2ncc3c(c2n1)C(CN1C2CCC1CC(NC/C=C/c1cc(F)ccc1F)C2)CO3 (racemic) [Example 21, [(E)-3-(2,5-difluoro-phenyl)-allyl]-[(3-exo)-8-((1RS)-8-methoxy-1,2-dihydro-3-oxa-5,9-diaza-cyclopenta[a]naphthalen-1-ylmethyl)-8-aza-bicyclo[3.2.1]oct-3-yl]-amine] | ≦0.031 mg/l | –
13 | COc1ccc2ncc3c(c2n1)C(CN1CCC[C@@H](CNCc2ccc4c(c2)NC(=O)CO4)C1)CO3 (mixture of isomers) [Example 31, 6-({[(3S)-1-((1RS)-8-methoxy-1,2-dihydro-3-oxa-5,9-diaza-cyclopenta[a]naphthalen-1-ylmethyl)-piperidin-3-ylmethyl]-amino}-methyl)-4H-benzo[1,4]oxazin-3-one] | – | ≤ 0.031
14 | COc1ccc2ccc3c(c2n1)C(CN1CCC(NCc2cc4c(nn2)OCCO4)CC1)CO3 (racemic) [Example 3, rac-(6,7-dihydro-[1,4]dioxino[2,3-c]pyridazin-3-ylmethyl)-[1-(2-methoxy-8,9-dihydro-furo[2,3-h]quinolin-9-ylmethyl)-piperidin-4-yl]-amine] | – | ≤ 0.031
15 | COc1ccc2ncc3c(c2n1)C(CN1CC[C@@H](NCc2cc4c(cn2)OCCO4)[C@@H](F)C1)CO3 (relative stereo) [Example 19, (2,3-dihydro-[1,4]dioxino[2,3-c]pyridin-7-ylmethyl)-[(3S*,4R*)-3-fluoro-1-((1RS)-8-methoxy-1,2-dihydro-3-oxa-5,9-diaza-cyclopenta[a]naphthalen-1-ylmethyl) -piperidin-4-yl]-amine] | – | ≤ 0.031
16 | COc1ccc2ncc3c(c2n1)C(CN1CCC[C@@H](CNCc2cc4c(nn2)OCCO4)C1)CO3 (mixture of isomers) [Example 39, (6,7-dihydro-[1,4]dioxino[2,3-c]pyridazin-3-ylmethyl)-[(3S)-1-((1RS)-8-methoxy-1,2-dihydro-3-oxa-5,9-diaza-cyclopenta[a]naphthalen-1-ylmethyl)-piperidin-3-ylmethyl]-amine] | – | ≤ 0.031
17 | COc1ccc2ncc3c(c2n1)[C@H](CN1CCC(NCc2ccc4c(n2)NC(=O)CS4)CC1)CO3 (single isomer, unassigned) [Example 16A] | – | ≤ 0.031
18 | COc1ccc2ncc3c(c2n1)C(CN1C2CCC1CC(NCc1ccc4c(n1)NC(=O)CO4)C2)CO3 (racemic) [Example 22, 6-{[(3-exo)-8-((1RS)-8-methoxy-1,2-dihydro-3-oxa-5,9-diaza-cyclopenta[a]naphthalen-1-ylmethyl)-8-aza-bicyclo[3.2.1]oct-3-ylamino]-methyl}-4H-pyrido[3,2-b][1,4]oxazin-3-one] | ≦0.031 mg/l | –
19 | COc1ccc2ncc3c(c2n1)C(CN1[C@@H]2CC[C@H]1C[C@H](NCc1cc4c(cn1)OCCO4)C2)CO3 (mixture of isomers) [Example 20, (2,3-dihydro-[1,4]dioxino[2,3-c]pyridin-7-ylmethyl) -[(3-exo)-8-((1RS)-8-methoxy-1,2-dihydro-3-oxa-5,9-diaza-cyclopenta[a]naphthalen-1-ylmethyl)-8-aza-bicyclo[3.2.1]oct-3-yl]-amine] | ≦0.031 mg/l | –
20 | COc1ccc2ncc3c(c2n1)C(CN1CCC[C@@H](CNCc2ccc4c(n2)NC(=O)CS4)C1)CO3 (mixture of isomers) [Example 28, 6-({[(3S)-1-((1RS)-8-methoxy-1,2-dihydro-3-oxa-5,9-diaza-cyclopenta[a]naphthalen-1-ylmethyl)-piperidin-3-ylmethyl]-amino}-methyl)-4H-pyrido[3,2-b][1,4]thiazin-3-one] | – | ≤ 0.031
21 | COc1ccc2ncc3c(c2n1)C(CN1CCC[C@@H](CNCc2ccc4c(n2)NC(=O)CO4)C1)CO3 (mixture of isomers) [Example 27] | ≦0.031 mg/l | –
22 | COc1ccc2ncc3c(c2n1)[C@@H](CN1CCC(NCc2cc4c(cn2)OCCO4)C(CO)C1)CO3 (stereo partly drawn) [Example 40, [4-[(2,3-dihydro-[1,4]dioxino[2,3-c]pyridin-7-ylmethyl)-amino]-1-((S)-8-methoxy-1,2-dihydro-3-oxa-5,9-diaza-cyclopenta[a]naphthalen-1-ylmethyl)-piperidin-3-yl]-methanol] | – | ≤ 0.031
23 | COc1ccc2ncc3c(c2n1)C(CN1CC[C@@H](CNCc2ccc4c(n2)NC(=O)CS4)C1)CO3 (mixture of isomers) [Example 14, 6-({[(3S)-1-((1RS)-8-methoxy-1,2-dihydro-3-oxa-5,9-diaza-cyclopenta[a]naphthalen-1-ylmethyl)-pyrrolidin-3-ylmethyl]-amino}-methyl)-4H-pyrido[3,2-b][1,4]thiazin-3-one] | – | ≤ 0.031
24 | COc1ccc2ncc3c(c2n1)C(CN1CCC[C@@H](CNCc2cc4c(cn2)OCCO4)C1)CO3 (mixture of isomers) [Example 29] | ≦0.031 mg/l | –
25 | COc1ccc2ncc3c(c2n1)C(CN1CC[C@H](NCc2cc4c(nn2)OCCO4)[C@H](CO)C1)CO3 (relative stereo) [Example 38, (3R*,4S*)-[4-[(6,7-dihydro-[1,4]dioxino[2,3-c]pyridazin-3-ylmethyl)-amino]-1-((1RS)-8-methoxy-1,2-dihydro-3-oxa-5,9-diaza-cyclopenta[a]naphthalen-1-ylmethyl)-piperidin-3-yl]-methanol] | – | 0.063 (≈ 0.127 µM)
26 | COc1ccc2ncc3c(c2n1)C(CN1CC[C@@H](CNC/C=C/c2cc(F)ccc2F)C1)CO3 (mixture of isomers) [Example 13, [(E)-3-(2,5-difluoro-phenyl)-allyl]-[(3S)-1-((1RS)-8-methoxy-1,2-dihydro-3-oxa-5,9-diaza-cyclopenta[a]naphthalen-1-ylmethyl)-pyrrolidin-3-ylmethyl]-amine] | – | ≤ 0.031
